{
  "source": "paper PMC3425516",
  "about": "(PLoS ONE, 2012)",
  "key": {"HCT116 xenograft tumors": {"test_system": "HCT116 xenograft tumors", "experiment": "Western blot of HCT116 xenograft tumor tissues", "type": "in vivo, nude mice", "conditions": "200 mg/kg oral daily for 7 days", "protocol": "For total lysate, cells were lysed with the 120 µL ice-cold lysis buffer [10 mmol/L Tris-HCl (pH 7.4), 150 mmol/L NaCl, 1 mmol/L EGTA, 1 mmol/L phenylmethylsulfonyl fluoride, 10 µg/mL aprotinin, 10 µg/mL leupeptin, 1 mM sodium orthovandate, 1 mM NaF, and 1% Triton X-100]. Cell lysates were centrifuged at 13,000 rpm for 30 min. […] After 1 h incubation at room temperature in PBS/5% nonfat milk, the membrane was washed with PBS/0.1% and incubated with the indicated antibodies at 4°C overnight. After washings with PBS/0.1% Tween 20, the corresponding secondary antibodies were applied to the membranes for 1 h at room temperature. The membranes were then washed with PBS/0.1% Tween 20 and the detection of signal was done with an enhanced chemiluminescence detection kit (Amersham, Buckinghamshire, UK).\nOnce a tumor was palpable with the size of approximately 55 mm^3, mice were randomized into vehicle control and treatment groups (8 mice per group). Control mice received the vehicle (0.5% carboxymethyl cellulose +0.1% Tween 80). Tumors in all 3 groups were allowed to reach an endpoint volume of 1,200 mm^3."}, "HCT116 cells [1]": {"test_system": "HCT116 cells", "experiment": "Western blot histone H3 and α-tubulin acetylation", "type": "cell-based, human", "conditions": "24 h", "protocol": "For total lysate, cells were lysed with the 120 µL ice-cold lysis buffer [10 mmol/L Tris-HCl (pH 7.4), 150 mmol/L NaCl, 1 mmol/L EGTA, 1 mmol/L phenylmethylsulfonyl fluoride, 10 µg/mL aprotinin, 10 µg/mL leupeptin, 1 mM sodium orthovandate, 1 mM NaF, and 1% Triton X-100]. Cell lysates were centrifuged at 13,000 rpm for 30 min. For Western blot analysis, the amount of protein (40 µg) was separated by electrophoresis in a 10% or 15% polyacrylamide gel and transferred to a polyvinylidene difluoride (PVDF) membrane. After 1 h incubation at room temperature in PBS/5% nonfat milk, the membrane was washed with PBS/0.1% and incubated with the indicated antibodies at 4°C overnight. After washings with PBS/0.1% Tween 20, the corresponding secondary antibodies were applied to the membranes for 1 h at room temperature. The membranes were then washed with PBS/0.1% Tween 20 and the detection of signal was done with an enhanced chemiluminescence detection kit (Amersham, Buckinghamshire, UK)."}, "HCT116 cells [2]": {"test_system": "HCT116 cells", "experiment": "Flow cytometry cell cycle / sub-G1 analysis", "type": "cell-based, human", "protocol": "After centrifugation, cells were incubated in 0.1 mol/L phosphate-citric acid buffer [0.2 mol/L NaHPO4, 0.1 mol/L citric acid (pH 7.8)] for 20 min at room temperature. Then, the cells were centrifuged and resuspended with 0.5 mL PI solution containing Triton X-100 (0.1%, v/v), RNase (100 µg/mL), and PI (80 µg/mL). DNA content was analyzed with the FACScan and CellQuest software (Becton Dickinson)."}, "recombinant human HDAC4": {"target": "recombinant human HDAC4 (Homo sapiens, UniProt P56524)", "sequence (P56524 whole entry)": "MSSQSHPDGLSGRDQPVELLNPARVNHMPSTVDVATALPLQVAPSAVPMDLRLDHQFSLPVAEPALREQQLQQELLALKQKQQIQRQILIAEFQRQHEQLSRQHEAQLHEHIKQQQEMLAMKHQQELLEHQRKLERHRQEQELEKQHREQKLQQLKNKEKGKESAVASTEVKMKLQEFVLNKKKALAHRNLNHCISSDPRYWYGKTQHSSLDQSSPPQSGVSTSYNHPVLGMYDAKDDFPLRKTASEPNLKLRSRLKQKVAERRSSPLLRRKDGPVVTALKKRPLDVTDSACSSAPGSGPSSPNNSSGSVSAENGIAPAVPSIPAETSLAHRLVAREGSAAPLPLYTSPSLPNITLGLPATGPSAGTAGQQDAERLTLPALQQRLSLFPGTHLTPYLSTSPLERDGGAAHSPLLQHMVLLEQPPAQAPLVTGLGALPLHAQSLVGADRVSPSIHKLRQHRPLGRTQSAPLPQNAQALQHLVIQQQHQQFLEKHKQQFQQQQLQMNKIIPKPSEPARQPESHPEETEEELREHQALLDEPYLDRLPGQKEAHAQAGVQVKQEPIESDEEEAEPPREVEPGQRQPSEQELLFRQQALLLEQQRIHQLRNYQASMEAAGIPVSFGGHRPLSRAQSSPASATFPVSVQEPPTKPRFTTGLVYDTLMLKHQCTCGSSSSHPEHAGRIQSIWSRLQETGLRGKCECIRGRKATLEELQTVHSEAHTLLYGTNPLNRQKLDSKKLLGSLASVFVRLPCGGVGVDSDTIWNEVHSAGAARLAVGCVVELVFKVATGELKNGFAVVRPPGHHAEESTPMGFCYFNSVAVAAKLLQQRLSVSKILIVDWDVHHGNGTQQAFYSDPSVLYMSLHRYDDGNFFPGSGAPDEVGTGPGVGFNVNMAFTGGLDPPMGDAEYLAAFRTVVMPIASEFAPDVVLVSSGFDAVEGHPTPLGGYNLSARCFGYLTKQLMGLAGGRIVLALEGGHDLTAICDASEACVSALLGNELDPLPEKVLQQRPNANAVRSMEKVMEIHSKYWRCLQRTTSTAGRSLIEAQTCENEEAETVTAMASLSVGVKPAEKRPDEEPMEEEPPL", "experiment": "biochemical", "text": "The HDACs in vitro activities of recombinant human HDAC 1, 2, 4, 6 and 8 (BPS Biosciences) were detected by fluorigenic release of 7-amino-4-methylcoumarin from substrate upon deacetylase enzymatic activity."}, "EKVX": {"test_system": "EKVX", "experiment": "NCI-60 cell lines screening", "type": "cell-based, human", "conditions": "Non-Small Cell Lung Cancer panel", "protocol": "(§1) The NCI-60 cancer cell lines screening was conducted by the NCI’s Developmental Therapeutics Program (DTP; http://www.dtp.nci.nih.gov/branches/btb/ivclsp.html)."}, "SNB-75": {"test_system": "SNB-75", "experiment": "NCI-60 cell lines screening", "type": "cell-based, human", "conditions": "SNB-75, CNS Cancer panel", "protocol": "as §1"}, "786-0": {"test_system": "786-0", "experiment": "NCI-60 cell lines screening", "type": "cell-based, human", "conditions": "786-0, Renal Cancer panel", "protocol": "as §1"}, "IGROV1": {"test_system": "IGROV1", "experiment": "NCI-60 cell lines screening", "type": "cell-based, human", "conditions": "IGROV1, Ovarian Cancer panel", "protocol": "as §1"}, "NCI-H226": {"test_system": "NCI-H226", "experiment": "NCI-60 cell lines screening", "type": "cell-based, human", "conditions": "NCI-H226, Non-Small Cell Lung Cancer panel", "protocol": "as §1"}, "CAKI-1": {"test_system": "CAKI-1", "experiment": "NCI-60 cell lines screening", "type": "cell-based, human", "conditions": "CAKI-1, Renal Cancer panel", "protocol": "as §1"}, "RXF 393": {"test_system": "RXF 393", "experiment": "NCI-60 cell lines screening", "type": "cell-based, human", "conditions": "RXF 393, Renal Cancer panel", "protocol": "as §1"}, "HT29": {"test_system": "HT29", "experiment": "NCI-60 cell lines screening", "type": "cell-based, human", "conditions": "HT29, Colon Cancer panel", "protocol": "as §1"}, "A549/ATCC": {"test_system": "A549/ATCC", "experiment": "NCI-60 cell lines screening", "type": "cell-based, human", "conditions": "Non-Small Cell Lung Cancer panel", "protocol": "as §1"}, "BT-549": {"test_system": "BT-549", "experiment": "NCI-60 cell lines screening", "type": "cell-based, human", "conditions": "BT-549, Breast Cancer panel", "protocol": "as §1"}, "U251": {"test_system": "U251", "experiment": "NCI-60 cell lines screening", "type": "cell-based, human", "conditions": "U251, CNS Cancer panel", "protocol": "as §1"}, "OVCAR-8": {"test_system": "OVCAR-8", "experiment": "NCI-60 cell lines screening", "type": "cell-based, human", "conditions": "OVCAR-8, Ovarian Cancer panel", "protocol": "as §1"}, "NCI-H322M": {"test_system": "NCI-H322M", "experiment": "NCI-60 cell lines screening", "type": "cell-based, human", "conditions": "Non-Small Cell Lung Cancer panel", "protocol": "as §1"}, "A498": {"test_system": "A498", "experiment": "NCI-60 cell lines screening", "type": "cell-based, human", "conditions": "A498, Renal Cancer panel", "protocol": "as §1"}, "[3]": {"test_system": "HDACs in HeLa nuclear extracts", "experiment": "HeLa nuclear extract HDAC activity assay", "type": "biochemical", "protocol": "The HeLa nuclear extract HDAC activity was measured by using the HDAC Fluorescent Activity Assay Kit (BioVision, CA, USA) according to manufacturer’s instructions. Briefly, the HDAC fluorometric substrate and assay buffer were added to HeLa nuclear extracts in a 96-well format and incubated at 37°C for 30 min. The reaction was stopped by adding lysine developer, and the mixture was incubated for another 30 min at 37°C. Additional negative controls included incubation without the nuclear extract, without the substrate, or without both. TSA at 1 µM served as the positive control."}, "[4]": {"conditions": "Homo sapiens, read-out: LC50 (the source's name)"}},
  "note": "Values joined by “and” are separate entries in the source; they are usually repeats but may differ in a detail not shown here. Equal values may be shown once.",
  "data": [
    {"molecule": "O=C(C=Cc1ccc2c(c1)CCN2S(=O)(=O)c1ccccc1)NO", "note": "[MPT0E028, 3-(1-benzenesulfonyl-2,3-dihydro-1H-indol-5-yl)-N-hydroxy-acrylamide]", "values": [
      {"measurement": "expression of caspase 3, PARP, acetyl-histone H3 and acetyl-tubulin in xenograft tumors", "setting": "HCT116 xenograft tumors", "result": "caspase 3, PARP and acetyl-histone H3 were substantially induced"},
      {"measurement": "histone H3 acetylation (western blot)", "setting": "HCT116 cells [1]", "result": "induced stronger hyperacetylation of histone H3 than that of SAHA"},
      {"measurement": "sub-G1 population (flow cytometry)", "setting": "HCT116 cells [2]", "result": "increased the number of cells in the sub-G1 phase of the cell cycle"},
      {"measurement": "IC50", "setting": "recombinant human HDAC4", "result": "> 10000", "unit": "nM"},
      {"measurement": "GI50", "setting": "EKVX; Homo sapiens", "result": 534, "unit": "nM"},
      {"measurement": "TGI", "setting": "EKVX", "result": ">100000", "unit": "nM"},
      {"measurement": "GI50", "setting": "SNB-75; Homo sapiens", "result": 59.1, "unit": "nM"},
      {"measurement": "CC50", "setting": "SNB-75; [4]", "result": 32800, "unit": "nM"},
      {"measurement": "TGI", "setting": "SNB-75", "result": 6270, "unit": "nM"},
      {"measurement": "TGI", "setting": "786-0", "result": 1330, "unit": "nM"},
      {"measurement": "GI50", "setting": "786-0; Homo sapiens", "result": 300, "unit": "nM"},
      {"measurement": "CC50", "setting": "786-0; [4]", "result": 4020, "unit": "nM"},
      {"measurement": "GI50", "setting": "IGROV1; Homo sapiens, IGROV-1", "result": 183, "unit": "nM"},
      {"measurement": "CC50", "setting": "IGROV1; Homo sapiens, IGROV-1, read-out: LC50 (the source's name)", "result": 2390, "unit": "nM"},
      {"measurement": "TGI", "setting": "IGROV1", "result": 533, "unit": "nM"},
      {"measurement": "GI50", "setting": "NCI-H226; Homo sapiens", "result": 1240, "unit": "nM"},
      {"measurement": "CC50", "setting": "NCI-H226; [4]", "result": 19000, "unit": "nM"},
      {"measurement": "TGI", "setting": "NCI-H226", "result": 3880, "unit": "nM"},
      {"measurement": "TGI", "setting": "CAKI-1", "result": 959, "unit": "nM"},
      {"measurement": "GI50", "setting": "CAKI-1; Homo sapiens", "result": 218, "unit": "nM"},
      {"measurement": "CC50", "setting": "CAKI-1; [4]", "result": "> 100000", "unit": "nM"},
      {"measurement": "GI50", "setting": "RXF 393; Homo sapiens", "result": 112, "unit": "nM"},
      {"measurement": "CC50", "setting": "RXF 393; [4]", "result": 998, "unit": "nM"},
      {"measurement": "TGI", "setting": "RXF 393", "result": 334, "unit": "nM"},
      {"measurement": "TGI", "setting": "HT29", "result": 716, "unit": "nM"},
      {"measurement": "GI50", "setting": "HT29; Homo sapiens, HT-29", "result": 118, "unit": "nM"},
      {"measurement": "CC50", "setting": "HT29; Homo sapiens, HT-29, read-out: LC50 (the source's name)", "result": 68100, "unit": "nM"},
      {"measurement": "GI50", "setting": "A549/ATCC; Homo sapiens", "result": 230, "unit": "nM"},
      {"measurement": "CC50", "setting": "A549/ATCC; [4]", "result": 9030, "unit": "nM"},
      {"measurement": "TGI", "setting": "A549/ATCC", "result": 1090, "unit": "nM"},
      {"measurement": "TGI", "setting": "BT-549", "result": 5840, "unit": "nM"},
      {"measurement": "GI50", "setting": "BT-549; Homo sapiens", "result": 680, "unit": "nM"},
      {"measurement": "CC50", "setting": "BT-549; [4]", "result": "> 100000", "unit": "nM"},
      {"measurement": "GI50", "setting": "U251; Homo sapiens, U-251", "result": 199, "unit": "nM"},
      {"measurement": "CC50", "setting": "U251; Homo sapiens, U-251, read-out: LC50 (the source's name)", "result": 3760, "unit": "nM"},
      {"measurement": "TGI", "setting": "U251", "result": 820, "unit": "nM"},
      {"measurement": "GI50", "setting": "OVCAR-8; Homo sapiens", "result": 121, "unit": "nM"},
      {"measurement": "CC50", "setting": "OVCAR-8; [4]", "result": "> 100000", "unit": "nM"},
      {"measurement": "TGI", "setting": "OVCAR-8", "result": 1750, "unit": "nM"},
      {"measurement": "GI50", "setting": "NCI-H322M; Homo sapiens", "result": 186, "unit": "nM"},
      {"measurement": "CC50", "setting": "NCI-H322M; [4]", "result": "> 100000", "unit": "nM"},
      {"measurement": "TGI", "setting": "NCI-H322M", "result": 11400, "unit": "nM"},
      {"measurement": "TGI", "setting": "A498", "result": 1130, "unit": "nM"},
      {"measurement": "GI50", "setting": "A498; Homo sapiens", "result": 243, "unit": "nM"},
      {"measurement": "CC50", "setting": "A498; [4]", "result": 5130, "unit": "nM"},
      {"measurement": "times more potent than SAHA in HDAC activity inhibition", "setting": "[3]; HeLa and HCT116 cells, relative to SAHA", "result": "9–30 times and 10–30 times"},
      {"measurement": "IC50", "setting": "[3]; HeLa nuclear extract", "result": 11.1, "unit": "nM"}
    ]}
  ]
}
